Experimental data: US5686492A, “Disubstituted p-fluorobenzenesulfonamides” (Schering Aktiengesellschaft, priority 1994, dated 1997)

Columns and labels:
[1] = compatibility in comparison to structurally closest previously-known compound; assay type: in vivo; conditions: than structurally closest previously-known compound (compound of Example 2 with Y meaning hydrogen)
From the text: (§1) An equally high (undesirable) histamine release is observed with the compound of Example 2 only with the 30-fold dosage of the above-mentioned previously-known comparison substance.

histamine release = histamine release in comparison to structurally closest previously-known compound; assay type: in vivo; conditions: multiple of the dosage of the previously-known comparison substance (compound of Example 2 with Y meaning hydrogen)
From the text: as §1

[2] = 19F NMR line width / signal intensity of the measuring fluorine atom; assay type: physicochemical; conditions: in comparison to prior art compound (compound of Example 2 with Y meaning hydrogen); for line width smaller by: signal of the measuring fluorine atom
From the text: In comparison to the structurally closest compounds of the prior art, the compounds according to the invention show clearly thinner signals for the measuring fluorine atom, so that an identically intensive signal is obtained with a smaller dosage.

With `O=C(O)CCS(=O)(=O)Nc1ccc(F)c(CC(=O)NC(CO)C(O)CO)c1C(F)(F)F` (centres unmarked) [Example 2, 3-{N-[4-Fluoro-2-trifluoromethylphenyl-3-acetic acid-N-(1-hydroxy-2,3-dihydroxypropyl)-amide]-sulfamoyl}-propionic acid] as the molecule, how does the “compatibility higher by” value [1] read?
The value was 50%.

What about the “dosage giving equally high (undesirable) histamine release” value (histamine release) of the same molecule?
The value was 30 -fold.

And the “line width smaller by” value [2]?
The value was 12%.

What does the source list for `O=C(Cc1cc(NS(=O)(=O)CC(F)(F)F)cc(CC(=O)NC(CO)C(O)CO)c1F)NC(CO)C(O)CO` (centres unmarked) [Example 6]?
signal increase [2]: ~50%; line width smaller by [2]: 25%
